{
  "source": "patent US11147926B2",
  "about": "“Intrathecal baclofen pharmaceutical dosage forms and related delivery system” (PIRAMAL CRITICAL CARE, INC., priority 2008, dated 2021)",
  "origin": "cited, not measured here",
  "key": {"[1]": {"conditions": "injected into the intrathecal space of a patient, at effective CSF concentrations, versus oral"}},
  "data": [
    {"smiles": "NCC(CC(=O)O)c1ccc(Cl)cc1", "note": "(stereo not shown) [Baclofen, 4-amino-3-(p-chlorophenyl)butyric acid]", "values": [
      {"measurement": "solubility in chloroform", "setting": "chloroform", "value": "insoluble"},
      {"measurement": "solubility in methanol", "setting": "methanol", "value": "very slightly soluble"},
      {"measurement": "solubility in water", "setting": "water", "value": "slightly soluble"},
      {"measurement": "plasma concentrations, times less than with oral administration", "setting": "[1]", "value": 100, "unit": "times"}
    ]}
  ]
}
